Here are results for 22 compounds from patent publication US4192799A, “Conjugates formed by reacting a prostaglandin mimic compound with a carrier molecule” (The Upjohn Company, priority 1977, dated 1980).

Like-named read-outs stand apart in the source and are kept apart here.

Series [1] has as its system antiserum raised against 9-deoxy-9-methylene PGF2 (KLH Conjugate). Description: RIA cross-reactivity of antiserum raised against 9-deoxy-9-methylene PGF2, KLH conjugate. The series is classed as binding, Albino New Zealand rabbits. As to conditions: relative to PGE2; ng required to displace 50% of [3H]PGE2. The procedure: (§1) Five milligrams of KLH-PGE2 mimic conjugate is added to 2.25 ml. of sterile saline (0.9%) and 2.25 ml. of Freund's complete adjuvant and blended. 1.0 ml. of this mixture is injected subcutaneously at 20-30 sites on the flanks of four Albino New Zealand rabbits of 2-4 kg. mass. Each rabbit receives a dose of about 1 mg. On the same day, 1.0 ml. of attenuated pertussis vaccine is injected intramuscularly at four sites on the hindquarters of each rabbit.
(§2) A known amount of PGE-type compound in 0.1 ml. PBSG buffer at pH 7.4±0.2 and 0.1 ml. of the radiolabeled form of the same PGE-type compound (10,000 cpm/0.1 ml. PBSG) are introduced into a 12×75 mm. polypropylene tube. Antiserum (0.1 ml.) against the corresponding mimic is added at a dilution which will bind 50%±3% of the radiolabeled authentic PGE-type compound in the absence of competition from the unlabeled PGE-type compound. The tube is incubated for 1 hour at 25° and then 12-16 hours at 4°. Antibody bound and free fractions are separated with dextrancoated charcoal. Other separation techniques are acceptable.
(§3) The data below show the cross-reactivity of antiserum raised against 9-deoxy-9-methylene PGF2 to various PGE-type compounds, relative to PGE2. Percent cross-reaction is defined as (ng. of PGE2 required to displace 50% of [^3 H] PGE2)/(ng. heterologous PG required to displace 50% of [^3 H] PGE2)×100.

Series [2] has as its system antiserum raised against 9-deoxy-9-methylene PGF2 (BSA Conjugate). Description: RIA cross-reactivity of antiserum raised against 9-deoxy-9-methylene PGF2, BSA conjugate. It counts as binding, Albino New Zealand rabbits. To be noted: relative to PGE2; ng required to displace 50% of [3H]PGE2. The procedure: as §1
Antibodies against other PG mimics can be elicited by substituting equal amounts of other conjugates, such as those of preparations 1 through 9, for the KLH-PGE2 mimic conjugate in procedure 1. For example, the following conjugates can be substituted:
as §2, §3

The conditions of series [3]: aqueous solution at room temperature; cited from earlier work.
For series [4], the system named is antibodies against PGE1 -poly-1-lysine conjugate. As to conditions: Table 1 Example 2, conjugate PGE1 -poly-1-lysine, PGE1 = 100; cited from earlier work.
The subject of series [5] is antibodies against PGE1 -BSA conjugate (Example 4). As to conditions: Table 1 Example 4, conjugate PGE1 -BSA, PGE1 = 100; cited from earlier work.
Series [6] has as its system antibodies against PGE1 -BSA conjugate (Example 6). To be noted: Table 1 Example 6, conjugate PGE1 -BSA, PGE1 = 100; cited from earlier work.
For series [7], the system named is antibodies against PGE2 -BSA conjugate (Example 1). To be noted: Table II Example 1, conjugate PGE2 -BSA, PGE2 = 100; cited from earlier work.
The test system of series [8] is antibodies against PGE2 -BSA conjugate (Example 5). As to conditions: Table II Example 5, conjugate PGE2 -BSA, PGE2 = 100, cited from earlier work.
Series [9] has as its system antibodies against PGE1 -porcine gamma globulin conjugate. As to conditions: Table 1 Example 3, conjugate PGE1 -porcine gamma globulin, PGE1 = 100; cited from earlier work.
Series [10] concerns antibodies against PGE1 -BSA conjugate (Example 7). To be noted: Table 1 Example 7, conjugate PGE1 -BSA, PGE1 = 100; cited from earlier work.
The test system of series [11] is antibodies against PGE1 -BSA conjugate (Example 5). To be noted: Table 1 Example 5, conjugate PGE1 -BSA, PGE1 = 100; cited from earlier work.
Series [12] relates to antibodies against PGE2 -BSA conjugate (Example 3). To be noted: Table II Example 3, conjugate PGE2 -BSA, PGE2 = 100; cited from earlier work.
In series [13] the test system is antibodies against PGE1 -thyroglobulin conjugate. As to conditions: Table 1 Example 1, conjugate PGE1 -thyroglobulin, PGE1 = 100; cited from earlier work.
Series [14] deals with antibodies against PGE2 -KLH conjugate. As to conditions: Table II Example 2, conjugate PGE2 -KLH, PGE2 = 100; cited from earlier work.
The subject of series [15] is antibodies against PGE2 -hen gamma globulin conjugate. As to conditions: Table II Example 4, conjugate PGE2 -hen gamma globulin, PGE2 = 100; cited from earlier work.

As to `CCCCC[C@H](O)/C=C/[C@H]1C(=O)C[C@H](O)[C@@H]1C/C=C\CCCC(=O)O` [PGD2], the “% Cross-Reaction KLH Conjugate” value in series [1] came to 0.02%. Besides, in series [2], the “% Cross-Reaction BSA Conjugate” value was 10.0%.
`CCCCC[C@H](O)/C=C/[C@@H]1[C@@H](C/C=C\CCCC(=O)O)[C@@H]2C[C@H]1OO2` [PGH2]: the half-life entry in series [3] is recorded as “approximately five”.
On to `CCCCC[C@H](O)CC[C@@H]1[C@@H](C/C=C\CCCC(=O)O)[C@@H](O)C[C@H]1O` [13,14-dihydro-PGF2 α], for which, in series [1], the “% Cross-Reaction KLH Conjugate” value turned out to be 0.34%. For the same compound, in series [2], the “% Cross-Reaction BSA Conjugate” value was found to be 0.2%.
The matching figures for `CCCCC[C@H](O)/C=C/[C@@H]1[C@@H](C/C=C\CCCC(=O)O)[C@H](O)C[C@H]1O` [PGF2 β]: 3.0% and 4.4%.
`CCCCC[C@H](O)/C=C/C1=C(C/C=C\CCCC(=O)O)C(=O)CC1` [PGB2]: the “% Cross-Reaction KLH Conjugate” value in [1] is on record as 0.009%. The “% Cross-Reaction BSA Conjugate” value in series [2] came to 0.0%. In addition, the “% Cross Reaction” value in series [4] was 8,500%; in series [5], 100%; in series [6], 50,000%; in series [7], 7%; in [8], 580%; in [8] (listed as B2) it was “recognized preferentially”.
On to `CCCCCC(=O)CC[C@@H]1[C@@H](C/C=C\CCCC(=O)O)[C@@H](O)C[C@H]1O` [13,14-dihydro-15-keto-PGF2 α], for which the “% Cross-Reaction KLH Conjugate” value in series [1] is listed as 0.10%. For the same compound, the “% Cross-Reaction BSA Conjugate” value in [2] was 0.01%.
For `CCCCC[C@H](O)/C=C/C1=C(CCCCCCC(=O)O)C(=O)CC1` [PGB1], in series [1], the “% Cross-Reaction KLH Conjugate” value is 0.005%. Moreover, the “% Cross-Reaction BSA Conjugate” value in [2] is 0.1%. In addition, the “% Cross Reaction” value in series [4] was 31,000%; in series [9] it was 10%; in series [6] it was 100,000%; in series [10] it was 66%.
For the compound `CCCCC[C@H](O)/C=C/[C@@H]1[C@@H](C/C=C\CCCC(=O)O)[C@@H](O)C[C@H]1O` [PGF2 α], the “% Cross-Reaction KLH Conjugate” value in series [1] was determined as 0.20%. Besides, in series [2], the “% Cross-Reaction BSA Conjugate” value was 1.5%.
The like results for `C=C1C[C@@H](O)[C@H](/C=C/[C@@H](O)CCCCC)[C@H]1C/C=C\CCCC(=O)O` [9-deoxy-9-methylene PGF2, 9-deoxy-9-methylene-PGF2] were, in that order, 100% and 100%.
Consider `CCCCC[C@H](O)/C=C/[C@H]1C=CC(=O)[C@@H]1CCCCCCC(=O)O` [PGA1], for which, in series [1], the “% Cross-Reaction KLH Conjugate” value came out at 0.08%. In addition, the “% Cross-Reaction BSA Conjugate” value in series [2] is on record as 4.9%. In addition, the “% Cross Reaction” value is recorded as 220% in series [4]; 100% in series [5]; 25% in series [11]; 10,000% in series [6]; 6% in [10]; 7% in series [7]. Further, in series [12], the “% Cross Reaction” value was 200%.
`CCCCC[C@H](O)/C=C/[C@H]1C(=O)C[C@H](O)[C@@H]1CCCCCCC(=O)O` [PGD1]: the “% Cross-Reaction KLH Conjugate” value in [1] came to 0.02%. The “% Cross-Reaction BSA Conjugate” value in series [2] stood at 4.9%.
Turning to `CCCCC[C@H](O)CC[C@H]1[C@H](O)CC(=O)[C@@H]1C/C=C\CCCC(=O)O` [13,14-dihydro-PGE2], the “% Cross-Reaction KLH Conjugate” value in series [1] is recorded as 1.6%. For the same compound, the “% Cross-Reaction BSA Conjugate” value in series [2] was determined as 3.6%.
On to `CCCCCC(=O)/C=C/[C@H]1[C@H](O)CC(=O)[C@@H]1C/C=C\CCCC(=O)O` [15-keto-PGE2], for which the “% Cross-Reaction KLH Conjugate” value in series [1] came out at 0.03%. Further, the “% Cross-Reaction BSA Conjugate” value in series [2] is listed as 2.5%.
The matching figures for `CCCCC[C@H](O)/C=C/[C@@H]1[C@@H](CCCCCCC(=O)O)[C@H](O)C[C@H]1O` [PGF1 β]: 0.30% and 5.0%.
The matching figures for `CCCCCC(=O)/C=C/[C@@H]1[C@@H](C/C=C\CCCC(=O)O)[C@@H](O)C[C@H]1O` [15-keto-PGF2 α]: 0.01% and 0.2%.
As to PGB3, the “% Cross Reaction” value was 7% in series [7] and 62% in series [12].
Regarding `CCCCC[C@H](O)/C=C/[C@H]1[C@H](O)CC(=O)[C@@H]1CCCCCCC(=O)O` [PGE1], in series [1], the “% Cross-Reaction KLH Conjugate” value stood at 90%. Besides, the “% Cross-Reaction BSA Conjugate” value in series [2] came out at 100%. The “% Cross Reaction” value in [13], in series [4], in series [9], in series [5], in series [11] and in series [6] was 100% throughout. The “% Cross Reaction” value was 100% in series [10]; 10% in [7]; 110% in series [14]; 73% in series [12]; 15% in series [15]; 55% in series [8].
Consider PGE1 α, for which, in series [1], the “% Cross-Reaction KLH Conjugate” value is 0.09%. Besides, the “% Cross-Reaction BSA Conjugate” value in series [2] came to 2.9%.
Regarding `CCCCC[C@H](O)/C=C/[C@H]1C=CC(=O)[C@@H]1C/C=C\CCCC(=O)O` [PGA2], the “% Cross-Reaction KLH Conjugate” value in series [1] came to 0.75%. The “% Cross-Reaction BSA Conjugate” value in series [2] came to 2.8%. Moreover, the “% Cross Reaction” value in [4] was 440%; in series [5] it was 100%; in series [11], 10%; in series [6], 1000%; in [7] it was 7%; in series [12], 400%. The “% Cross Reaction” value in series [15] was 3%; in [8] it was 550%; in [8] (listed as A2) it was “recognized preferentially”.
Take `CCCCC[C@H](O)/C=C/[C@H]1[C@H](O)CC(=O)[C@@H]1C/C=C\CCCC(=O)O` [PGE2, prostaglandin E2]: the “% Cross Reaction” value in series [13] is 20%; in series [4] it was 10%; in series [5], 100%; in series [6] it was 90%; in [7], 100%; in [14] it was 100%. The “% Cross Reaction” value in series [12], in series [15] and in series [8] was 100% in each case.
Regarding `CCCCCC(=O)CC[C@H]1[C@H](O)CC(=O)[C@@H]1C/C=C\CCCC(=O)O` [13,14-dihydro-15-keto-PGE2, 13,14-dihydro-15-keto-PGE], in series [1], the “% Cross-Reaction KLH Conjugate” value stood at 0.03%. Moreover, the “% Cross-Reaction BSA Conjugate” value in series [2] was 0.2%.
With `CCCCC[C@H](O)/C=C/[C@@H]1[C@@H](CC(=O)CCCCC(=O)O)[C@@H](O)C[C@H]1O` [6-keto-PGF1 α], the “% Cross-Reaction KLH Conjugate” value in series [1] is reported as 0.10%. In addition, in series [2], the “% Cross-Reaction BSA Conjugate” value is 0.50%.
